The kinase profiling compilation of Christmann-Franck et al. (2016)

What was measured:
Assay in all cases: KINOMEscan competition binding
Conditions in all cases: compound 10.0 µM
BRSK2 (human) = BRSK2 (human) (UniProt Q8IWQ3)
CAMK2B (human) = CAMK2B (human) (UniProt Q13554)
CAMKK2 (human) = CAMKK2 (human) (UniProt Q96RR4)
CDC42BPB (human) = CDC42BPB (human) (UniProt Q9Y5S2)
CDC42BPG (human) = CDC42BPG (human) (UniProt Q6DT37)
CLK2 (human) = CLK2 (human) (UniProt P49760)
CLK4 (human) = CLK4 (human) (UniProt Q9HAZ1)
CSF1R (human) = CSF1R (human) (UniProt P07333)
CSNK1E (human) = CSNK1E (human) (UniProt P49674)
CSNK1G1 (human) = CSNK1G1 (human) (UniProt Q9HCP0)
EPHA8 (human) = EPHA8 (human) (UniProt P29322)
FLT3 (human) = FLT3 (human) (UniProt P36888)
FLT4 (human) = FLT4 (human) (UniProt P35916)
HCK (human) = HCK (human) (UniProt P08631)
HIPK1 (human) = HIPK1 (human) (UniProt Q86Z02)
[1] = target: JAK1 JH1 catalytic (human) (UniProt P23458)
[2] = target: JAK3 JH1 catalytic (human) (UniProt P52333)
MAP3K4 (human) = MAP3K4 (human) (UniProt Q9Y6R4)
MAP3K7 (human) = MAP3K7 (human) (UniProt O43318)
MAP4K2 (human) = MAP4K2 (human) (UniProt Q12851)
MAP4K4 (human) = MAP4K4 (human) (UniProt O95819)
MAP4K5 (human) = MAP4K5 (human) (UniProt Q9Y4K4)
MAPK7 (human) = MAPK7 (human) (UniProt Q13164)
MAPKAPK5 (human) = MAPKAPK5 (human) (UniProt Q8IW41)
MINK1 (human) = MINK1 (human) (UniProt Q8N4C8)
MTOR (human) = MTOR (human) (UniProt P42345)
MUSK (human) = MUSK (human) (UniProt O15146)
MYLK (human) = MYLK (human) (UniProt Q15746)
NEK3 (human) = NEK3 (human) (UniProt P51956)
PLK1 (human) = PLK1 (human) (UniProt P53350)
PLK3 (human) = PLK3 (human) (UniProt Q9H4B4)
RAF1 (human) = RAF1 (human) (UniProt P04049)
RIOK3 (human) = RIOK3 (human) (UniProt O14730)
RPS6KA1 KD2 (human) = RPS6KA1 KD2 (human) (UniProt Q15418)
RPS6KA4 KD1 (human) = RPS6KA4 KD1 (human) (UniProt O75676)
STK11 (human) = STK11 (human) (UniProt Q15831)
TIE1 (human) = TIE1 (human) (UniProt P35590)
ULK2 (human) = ULK2 (human) (UniProt Q8IYT8)
RPS6KA3 KD1 (human) = RPS6KA3 KD1 (human) (UniProt P51812)
EGFR (human) = EGFR (human) (UniProt P00533)

Sequence of TIE1 (human) (P35590 whole entry, looked up): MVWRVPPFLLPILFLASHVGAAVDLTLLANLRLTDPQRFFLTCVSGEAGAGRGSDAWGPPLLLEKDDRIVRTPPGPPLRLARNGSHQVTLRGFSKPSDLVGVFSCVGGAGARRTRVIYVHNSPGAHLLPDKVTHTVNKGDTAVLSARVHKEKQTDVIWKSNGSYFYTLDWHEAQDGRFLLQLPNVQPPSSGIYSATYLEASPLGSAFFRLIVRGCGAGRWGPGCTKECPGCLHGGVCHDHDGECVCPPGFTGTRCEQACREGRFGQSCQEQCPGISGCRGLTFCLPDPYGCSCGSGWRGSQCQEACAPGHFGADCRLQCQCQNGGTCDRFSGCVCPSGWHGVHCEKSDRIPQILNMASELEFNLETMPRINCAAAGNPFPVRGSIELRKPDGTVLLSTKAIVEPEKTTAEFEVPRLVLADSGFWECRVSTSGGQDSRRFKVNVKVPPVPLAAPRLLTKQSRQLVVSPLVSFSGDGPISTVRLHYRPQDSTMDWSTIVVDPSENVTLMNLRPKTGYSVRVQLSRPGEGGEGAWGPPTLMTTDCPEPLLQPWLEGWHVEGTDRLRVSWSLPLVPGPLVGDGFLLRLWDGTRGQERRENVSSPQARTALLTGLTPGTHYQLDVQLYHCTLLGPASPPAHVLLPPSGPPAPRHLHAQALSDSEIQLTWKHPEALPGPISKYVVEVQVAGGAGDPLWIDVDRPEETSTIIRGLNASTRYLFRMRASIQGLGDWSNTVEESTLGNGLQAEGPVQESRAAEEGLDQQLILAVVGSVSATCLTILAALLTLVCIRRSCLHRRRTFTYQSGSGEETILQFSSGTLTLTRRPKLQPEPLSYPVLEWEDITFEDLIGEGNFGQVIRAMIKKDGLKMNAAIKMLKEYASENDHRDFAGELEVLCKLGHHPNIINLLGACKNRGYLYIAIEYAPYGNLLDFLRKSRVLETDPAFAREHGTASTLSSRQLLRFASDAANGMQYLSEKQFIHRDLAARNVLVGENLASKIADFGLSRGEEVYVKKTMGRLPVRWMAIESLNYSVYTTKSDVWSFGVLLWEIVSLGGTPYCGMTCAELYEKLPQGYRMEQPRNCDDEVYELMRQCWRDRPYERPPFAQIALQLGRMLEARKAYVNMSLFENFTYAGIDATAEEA
Sequence of HCK (human) (P08631 whole entry, looked up): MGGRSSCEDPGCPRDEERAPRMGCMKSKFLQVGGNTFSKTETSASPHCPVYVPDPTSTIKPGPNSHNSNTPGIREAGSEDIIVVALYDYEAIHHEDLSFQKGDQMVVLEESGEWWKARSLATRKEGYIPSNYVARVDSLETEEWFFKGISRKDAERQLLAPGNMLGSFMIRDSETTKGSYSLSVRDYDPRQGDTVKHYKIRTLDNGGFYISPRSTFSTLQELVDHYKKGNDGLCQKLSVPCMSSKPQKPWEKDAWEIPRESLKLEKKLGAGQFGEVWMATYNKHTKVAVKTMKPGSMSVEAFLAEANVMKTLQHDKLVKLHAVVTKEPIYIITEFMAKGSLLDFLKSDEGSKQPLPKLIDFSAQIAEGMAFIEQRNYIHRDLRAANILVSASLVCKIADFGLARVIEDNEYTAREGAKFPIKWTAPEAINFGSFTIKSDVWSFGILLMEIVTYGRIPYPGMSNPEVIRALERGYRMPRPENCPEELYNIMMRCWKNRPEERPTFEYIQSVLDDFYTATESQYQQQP
Sequence of RPS6KA4 KD1 (human) (O75676 whole entry, looked up): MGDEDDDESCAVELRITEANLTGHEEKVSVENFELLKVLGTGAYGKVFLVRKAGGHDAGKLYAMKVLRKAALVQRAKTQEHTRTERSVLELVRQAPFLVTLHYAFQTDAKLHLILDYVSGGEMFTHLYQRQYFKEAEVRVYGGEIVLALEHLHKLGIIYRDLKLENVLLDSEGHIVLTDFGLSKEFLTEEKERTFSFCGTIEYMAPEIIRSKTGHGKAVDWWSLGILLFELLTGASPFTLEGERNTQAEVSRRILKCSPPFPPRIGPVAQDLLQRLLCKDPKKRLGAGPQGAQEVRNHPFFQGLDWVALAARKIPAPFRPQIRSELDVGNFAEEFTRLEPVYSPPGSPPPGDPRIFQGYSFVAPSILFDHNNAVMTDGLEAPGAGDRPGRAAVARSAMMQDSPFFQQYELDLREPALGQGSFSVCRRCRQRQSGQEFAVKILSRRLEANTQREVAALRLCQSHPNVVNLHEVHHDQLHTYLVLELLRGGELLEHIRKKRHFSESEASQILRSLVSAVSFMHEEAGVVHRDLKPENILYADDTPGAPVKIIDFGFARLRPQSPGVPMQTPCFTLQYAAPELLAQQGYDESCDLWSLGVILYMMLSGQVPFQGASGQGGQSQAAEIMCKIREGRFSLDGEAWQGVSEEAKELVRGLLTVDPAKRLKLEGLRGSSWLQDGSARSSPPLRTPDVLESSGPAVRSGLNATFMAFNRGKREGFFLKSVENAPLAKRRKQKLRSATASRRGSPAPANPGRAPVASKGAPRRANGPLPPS
Sequence of CLK2 (human) (P49760 whole entry, looked up): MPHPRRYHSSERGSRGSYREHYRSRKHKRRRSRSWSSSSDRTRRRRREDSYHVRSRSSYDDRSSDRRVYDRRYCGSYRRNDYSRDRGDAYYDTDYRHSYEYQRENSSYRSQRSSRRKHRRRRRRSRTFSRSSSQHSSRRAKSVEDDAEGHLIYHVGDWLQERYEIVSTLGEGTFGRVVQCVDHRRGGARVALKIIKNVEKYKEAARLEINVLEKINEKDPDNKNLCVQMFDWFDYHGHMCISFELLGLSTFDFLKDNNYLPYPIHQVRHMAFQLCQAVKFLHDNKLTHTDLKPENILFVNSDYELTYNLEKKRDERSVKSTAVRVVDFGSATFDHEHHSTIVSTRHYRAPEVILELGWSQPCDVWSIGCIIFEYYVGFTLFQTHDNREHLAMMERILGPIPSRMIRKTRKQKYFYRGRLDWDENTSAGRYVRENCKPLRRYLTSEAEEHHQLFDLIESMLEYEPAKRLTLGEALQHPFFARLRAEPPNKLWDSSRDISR
Sequence of MAP3K7 (human) (O43318 whole entry, looked up): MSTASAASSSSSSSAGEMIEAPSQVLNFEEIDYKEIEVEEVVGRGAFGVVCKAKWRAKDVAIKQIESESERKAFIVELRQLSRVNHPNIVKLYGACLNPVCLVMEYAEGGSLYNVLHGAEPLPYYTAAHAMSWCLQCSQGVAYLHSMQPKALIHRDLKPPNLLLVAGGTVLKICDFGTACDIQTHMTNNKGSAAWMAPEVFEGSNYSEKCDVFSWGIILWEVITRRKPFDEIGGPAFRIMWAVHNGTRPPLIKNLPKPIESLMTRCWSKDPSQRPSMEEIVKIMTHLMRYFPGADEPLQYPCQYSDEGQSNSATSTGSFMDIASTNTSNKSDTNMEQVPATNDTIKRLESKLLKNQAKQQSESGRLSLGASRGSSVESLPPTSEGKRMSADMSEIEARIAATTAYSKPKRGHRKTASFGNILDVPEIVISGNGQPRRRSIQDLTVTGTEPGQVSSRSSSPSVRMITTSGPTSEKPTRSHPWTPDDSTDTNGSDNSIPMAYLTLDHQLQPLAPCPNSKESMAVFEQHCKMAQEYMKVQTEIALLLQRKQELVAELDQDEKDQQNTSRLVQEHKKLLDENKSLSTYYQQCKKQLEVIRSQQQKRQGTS
Sequence of MAP4K4 (human) (O95819 whole entry, looked up): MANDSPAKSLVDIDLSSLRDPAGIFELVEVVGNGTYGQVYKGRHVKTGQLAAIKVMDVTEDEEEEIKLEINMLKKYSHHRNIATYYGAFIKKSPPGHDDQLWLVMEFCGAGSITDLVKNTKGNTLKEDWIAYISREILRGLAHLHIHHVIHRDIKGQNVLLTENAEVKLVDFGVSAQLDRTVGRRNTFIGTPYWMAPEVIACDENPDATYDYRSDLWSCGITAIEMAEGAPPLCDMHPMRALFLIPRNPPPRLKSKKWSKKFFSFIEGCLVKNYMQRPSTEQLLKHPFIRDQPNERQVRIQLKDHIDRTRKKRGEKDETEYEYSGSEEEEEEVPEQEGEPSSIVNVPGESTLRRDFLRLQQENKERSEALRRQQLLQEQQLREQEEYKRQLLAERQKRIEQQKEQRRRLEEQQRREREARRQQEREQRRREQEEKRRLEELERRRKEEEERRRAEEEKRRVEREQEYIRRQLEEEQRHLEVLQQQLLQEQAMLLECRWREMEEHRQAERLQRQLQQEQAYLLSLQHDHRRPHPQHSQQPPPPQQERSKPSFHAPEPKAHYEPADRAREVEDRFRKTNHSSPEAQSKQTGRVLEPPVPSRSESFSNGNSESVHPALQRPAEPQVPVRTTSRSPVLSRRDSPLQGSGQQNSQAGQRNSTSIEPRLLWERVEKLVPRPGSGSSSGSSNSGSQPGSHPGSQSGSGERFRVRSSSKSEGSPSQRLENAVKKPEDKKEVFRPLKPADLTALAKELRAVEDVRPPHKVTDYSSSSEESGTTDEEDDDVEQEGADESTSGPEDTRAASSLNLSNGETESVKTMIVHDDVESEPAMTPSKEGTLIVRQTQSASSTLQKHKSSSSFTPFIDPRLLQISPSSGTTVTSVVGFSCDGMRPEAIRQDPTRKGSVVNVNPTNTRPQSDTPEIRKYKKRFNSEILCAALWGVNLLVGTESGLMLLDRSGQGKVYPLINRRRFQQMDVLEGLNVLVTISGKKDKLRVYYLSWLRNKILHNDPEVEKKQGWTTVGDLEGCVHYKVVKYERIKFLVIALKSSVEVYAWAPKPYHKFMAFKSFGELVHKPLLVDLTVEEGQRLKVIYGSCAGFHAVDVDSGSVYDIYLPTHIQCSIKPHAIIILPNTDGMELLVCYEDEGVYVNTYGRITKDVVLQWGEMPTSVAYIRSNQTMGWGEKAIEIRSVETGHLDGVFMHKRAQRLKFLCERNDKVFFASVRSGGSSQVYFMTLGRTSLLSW

Row | SMILES | kinase still bound, per cent of control (BRSK2 (human)) | kinase still bound, per cent of control (CAMKK2 (human)) | kinase still bound, per cent of control (CDC42BPB (human)) | kinase still bound, per cent of control (CDC42BPG (human)) | kinase still bound, per cent of control (CLK2 (human)) | kinase still bound, per cent of control (CLK4 (human)) | kinase still bound, per cent of control (CSF1R (human)) | kinase still bound, per cent of control (CSNK1E (human)) | kinase still bound, per cent of control (CSNK1G1 (human)) | kinase still bound, per cent of control (EPHA8 (human)) | kinase still bound, per cent of control (FLT3 (human)) | kinase still bound, per cent of control (HIPK1 (human)) | kinase still bound, per cent of control [2] | kinase still bound, per cent of control (MAP3K7 (human)) | kinase still bound, per cent of control (MAP4K2 (human)) | kinase still bound, per cent of control (MAPK7 (human)) | kinase still bound, per cent of control (MINK1 (human)) | kinase still bound, per cent of control (MYLK (human)) | kinase still bound, per cent of control (PLK1 (human)) | kinase still bound, per cent of control (PLK3 (human)) | further results
1 | N#C/C(=C1/Nc2ccccc2S1)c1ccnc(NCCc2cccnc2)n1 | 100% | 54% | 81% | 89% | 3.7% | 29% | 98% | 60% | 42% | 100% | 100% | 1.2% | 10% | 22% | 36% | 100% | 45% | 66% | 72% | 12% | kinase still bound, per cent of control (CAMK2B (human)): 49%; kinase still bound, per cent of control (FLT4 (human)): 100%; kinase still bound, per cent of control (HCK (human)): 100%; kinase still bound, per cent of control [1]: 100%; kinase still bound, per cent of control (MAP3K4 (human)): 100%; kinase still bound, per cent of control (MAP4K4 (human)): 93%; kinase still bound, per cent of control (MAP4K5 (human)): 94%; kinase still bound, per cent of control (MAPKAPK5 (human)): 100%; kinase still bound, per cent of control (MTOR (human)): 34%; kinase still bound, per cent of control (MUSK (human)): 100%; kinase still bound, per cent of control (NEK3 (human)): 58%; kinase still bound, per cent of control (RAF1 (human)): 100%; kinase still bound, per cent of control (RIOK3 (human)): 33%; kinase still bound, per cent of control (RPS6KA1 KD2 (human)): 27%; kinase still bound, per cent of control (RPS6KA4 KD1 (human)): 100%; kinase still bound, per cent of control (STK11 (human)): 77%; kinase still bound, per cent of control (TIE1 (human)): 100%; kinase still bound, per cent of control (ULK2 (human)): 83%
2 | CCc1nc(-c2cccc(C)c2)c(-c2ccnc(NC(=O)c3ccccc3)c2)s1 | 95% | 100% | 63% | 15% | 61% | 93% | 76% | 0.05% | 28% | 89% | 17% | 94% | 80% | 64% | 93% | 98% | 8.4% | 84% | 100% | 98% | kinase still bound, per cent of control (FLT4 (human)): 27%; kinase still bound, per cent of control (HCK (human)): 31%; kinase still bound, per cent of control [1]: 100%; kinase still bound, per cent of control (MAP3K4 (human)): 85%; kinase still bound, per cent of control (MAPKAPK5 (human)): 100%; kinase still bound, per cent of control (MTOR (human)): 100%; kinase still bound, per cent of control (MUSK (human)): 100%; kinase still bound, per cent of control (NEK3 (human)): 100%; kinase still bound, per cent of control (RAF1 (human)): 34%; kinase still bound, per cent of control (RIOK3 (human)): 100%; kinase still bound, per cent of control (RPS6KA1 KD2 (human)): 28%; kinase still bound, per cent of control (RPS6KA3 KD1 (human)): 93%; kinase still bound, per cent of control (RPS6KA4 KD1 (human)): 100%; kinase still bound, per cent of control (STK11 (human)): 96%; kinase still bound, per cent of control (TIE1 (human)): 96%; kinase still bound, per cent of control (ULK2 (human)): 100%
3 | COc1cc(C)c(Sc2cnc(NC(=O)c3ccc(CNC(C)C(C)C)cc3)s2)cc1C(=O)N1CCN(C(C)=O)CC1 (configuration not stated) | 100% | 24% | 100% | 100% | 3.7% | 33% | 100% | 100% | 100% | 100% | 100% | 100% | 100% | 100% | 100% | 100% | 100% | 100% | 100% | 100% | kinase still bound, per cent of control (CAMK2B (human)): 100%; kinase still bound, per cent of control (EGFR (human)): 100%; kinase still bound, per cent of control (FLT4 (human)): 100%; kinase still bound, per cent of control (HCK (human)): 100%; kinase still bound, per cent of control [1]: 100%; kinase still bound, per cent of control (MAP3K4 (human)): 12%; kinase still bound, per cent of control (MAP4K4 (human)): 100%; kinase still bound, per cent of control (MAP4K5 (human)): 100%; kinase still bound, per cent of control (MAPKAPK5 (human)): 100%; kinase still bound, per cent of control (MUSK (human)): 0.2%; kinase still bound, per cent of control (RAF1 (human)): 100%; kinase still bound, per cent of control (RIOK3 (human)): 100%; kinase still bound, per cent of control (RPS6KA1 KD2 (human)): 100%; kinase still bound, per cent of control (RPS6KA3 KD1 (human)): 100%; kinase still bound, per cent of control (RPS6KA4 KD1 (human)): 100%; kinase still bound, per cent of control (STK11 (human)): 100%; kinase still bound, per cent of control (TIE1 (human)): 11%; kinase still bound, per cent of control (ULK2 (human)): 24%
4 | CC(=O)c1c(C)c2cnc(Nc3ccc(N4CCNCC4)cn3)nc2n(C2CCCC2)c1=O | 80% | 20% | 91% | 94% | 0.35% | 2% | 50% | 16% | 83% | 93% | 35% | 0.1% | 8.5% | 7.9% | 52% | 0.65% | 7.6% | 20% | 8.4% | 19% | kinase still bound, per cent of control (CAMK2B (human)): 4.4%; kinase still bound, per cent of control (MAP4K4 (human)): 23%; kinase still bound, per cent of control (MTOR (human)): 40%; kinase still bound, per cent of control (NEK3 (human)): 100%; kinase still bound, per cent of control (RIOK3 (human)): 64%; kinase still bound, per cent of control (RPS6KA1 KD2 (human)): 38%; kinase still bound, per cent of control (RPS6KA3 KD1 (human)): 28%; kinase still bound, per cent of control (RPS6KA4 KD1 (human)): 75%; kinase still bound, per cent of control (STK11 (human)): 82%; kinase still bound, per cent of control (ULK2 (human)): 0%
